Test results published in patent publication US20220152044A1, “TREATMENT OF INFLAMMATORY DISEASES OF THE CENTRAL NERVOUS SYSTEM” (PALMAYA PTY LTD, priority 2019, published 2022).

Experiments:
[1] = system: craving for nicotine; test: Nicotine craving and use in patients; type: in vivo, human; conditions: flumazenil by infusion or nasally/sublingually 50 to 200 micrograms per dose
[2] = system: PTSD; test: PTSD patients treated with flumazenil and/or naltrexone; type: in vivo, human; conditions: severe case, had occurred for 6 years; naltrexone implant inserted
Source text: Post Trauma Stress Disorder (PTSD), causes dysregulation of anxiety control that may damage the GABAA system and present as hypervigilance, sleep disturbance, anxiety, gastrointestinal (GIT) or bladder symptoms. We have been using flumazenil for more than 8 years to treat patients presenting complex. The infusions and implants give relief to the anxiety, sleep disturbance and the GIT symptoms as well as urinary symptoms in many well established PTSD patients.
Sleep remained normal following this. The profound recovery of sleep in patients with PTSD using flumazenil and naltrexone by continuous delivery has not previously been described.

[3] = system: cannabis withdrawal; test: Withdrawal from cannabis with high THC concentrations; type: in vivo, human; conditions: naltrexone implants, plasma concentration 0.5 ng/ml to 10 ng/ml or more
Source text: Cannabis use has changed in recent years with a significant cohort describing high tetrahydrocannabinol (THC) concentrations in potent strains which are cultivated for their high THC content. In the patient group using these high concentrations of THC, we have noted that a group of patients give a clear cut history of extreme nausea, vomiting, anxiety changing to serious paranoid thoughts and delusions followed by psychosis over the first 3-5 days of ceasing drug use.
In a severe patient population, ondansetron may be given every 6-8 hours to assist in reducing the nausea and associated anxiety symptoms.
Our results indicated a clear reduction in anxiety, and paranoid symptoms, allowing patients who otherwise would be unable to cope with the symptoms, to cease cannabis use.

[4] = system: HPA axis; test: HPA axis in stressed animals; type: in vivo
Source text: For this reason the combination of sustained release naltrexone and sustained release flumazenil using injections, implants or infusions would be expected to limit neuro-inflammatory diseases and their symptoms.

[5] = system: alcohol use; test: Return to alcohol use on naltrexone with or without flumazenil; type: in vivo, human; conditions: naltrexone 2 ng/ml; flumazenil 40 to 160 μg/hour where combined
Procedure: We have observed that in this group of patients complain of increased irritability, increased anxiety, increased sleep disturbance, and/or increased aggressive behaviour. However, when administered together with flumazenil at a concentration of 40 to 160 μg/hour, these systems are controlled.
For patients with a history of relapse on naltrexone implants, the use of sustained release flumazenil with infusions initially and with a series of sustained release flumazenil implants delivering 40-160 μg/hour to sustain a concentration of 0.5 ng/ml or more appear to be useful in controlling the return to alcohol use. For example, we have shown that in women with a history of irritability and return to drinking in the premenstrual days, this treatment with sustained release flumazenil in combination with naltrexone, reduces craving and relapse patterns.

[6] = system: amphetamine use; test: Amphetamine / methamphetamine craving and withdrawal; type: in vivo, human; conditions: naltrexone implants, plasma concentration maintained at 2 ng/ml or higher
Procedure: In those patients that return 2-3 weeks with extreme anxiety and a desire to return to amphetamine use, the commencement of flumazenil infusions followed by a flumazenil implant that sustains a plasma concentration of flumazenil at 0.5-2 ng/ml or more decreases the cravings, including a decrease in the desire for amphetamines and allows reduction f irritability and aggression.

[7] = system: cocaine use; test: Cocaine craving in patients with naltrexone implants; type: in vivo, human; conditions: approximately 15 patients, reported by most
Source text: Approximately 15 […] patients have presented specifically for the control of their cocaine use using naltrexone implants. Approximately a third of these patients were from the United Kingdom, a third from Sydney, Australia and a third from Perth, Australia. This group of patients reported a reduction in craving with naltrexone implants, and most reported a reduction in cravings for 6-12 months after receiving the implant. Approximately half returned for repeat implants based on their observations that the naltrexone implant controlled their cravings.

Which “craving for and use of nicotine” value [1] does the source give for `O=C1CC[C@@]2(O)[C@H]3Cc4ccc(O)c5c4[C@@]2(CCN3CC2CC2)[C@H]1O5` [naltrexone] here?
Its value is “reduced craving for nicotine”.

What about the “waking at 2 am with shouting and anxiety” value [2] of the same compound?
Its value is “stopped immediately”.

What about the “cannabis craving and impulse control” value [3] of the same compound?
The value was “reduces the craving and improves impulse control”.

And the “return of the HPA axis to normal” value [4]?
The value was “help return the HPA axis”.

And the “return to alcohol use” value [5]?
Its value is “return to drinking alcohol”.

And the “craving for amphetamine use” value [6]?
Its value is “significant reduction in craving”.

What about the “duration of reduction in cravings after receiving the implant” value [7] of the same compound?
The value was 6-12 months.
